Assay results published in PubChem BioAssay (NCI).
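Tested at 5 concentrations; 48 h exposure; 96-well plates; endpoints linearly interpolated, else capped at highest concentration. At the TGI there is no net growth.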

How the values were obtained:
Assay in all cases: NCI tumour cell line growth inhibition, 48 h
[1] = test system: HOP-62 NSCLC
[2] = test system: SNB-75 CNS
[3] = test system: SF-295 CNS
[4] = test system: MALME-3M melanoma
[5] = test system: TK-10 renal
[6] = test system: DMS 273 small cell lung
[7] = test system: SK-MEL-28 melanoma
[8] = test system: RXF 393 renal
[9] = test system: HCT-116 colon
[10] = test system: COLO 205 colon
[11] = test system: HL-60(TB) leukemia
[12] = test system: IGROV1 ovarian
[13] = test system: XF 498 CNS
[14] = test system: SNB-78 CNS
[15] = test system: KM12 colon
[16] = test system: UACC-62 melanoma
[17] = test system: SK-MEL-5 melanoma
[18] = test system: UO-31 renal
[19] = test system: SW-620 colon
[20] = test system: EKVX NSCLC
[21] = test system: SF-539 CNS
[22] = test system: U251 CNS
[23] = test system: DLD-1 colon
[24] = test system: M19-MEL melanoma
[25] = test system: SK-MEL-2 melanoma
[26] = test system: OVCAR-3 ovarian
[27] = test system: OVCAR-8 ovarian
[28] = test system: HT29 colon
[29] = test system: OVCAR-5 ovarian
[30] = test system: HCT-15 colon
[31] = test system: SNB-19 CNS
[32] = test system: K-562 leukemia
[33] = test system: KM20L2 colon
[34] = test system: NCI-H23 lung
[35] = test system: SK-OV-3 ovarian
[36] = test system: SN12C renal
[37] = test system: SF-268 CNS
[38] = test system: CCRF-CEM leukemia
[39] = test system: OVCAR-4 ovarian
[40] = test system: DMS 114 small cell lung
[41] = test system: NCI-H226 lung
[42] = test system: 786-0 renal
[43] = test system: RXF-631 renal
[44] = test system: M14 melanoma
[45] = test system: CAKI-1 renal
[46] = test system: ACHN renal
[47] = test system: SR leukemia
[48] = test system: MOLT-4 leukemia
[49] = test system: LOX IMVI melanoma
[50] = test system: HCC-2998 colon
[51] = test system: RPMI-8226 leukemia
[52] = test system: NCI-H460 lung
[53] = test system: NCI-H522 lung
[54] = test system: A549 NSCLC
[55] = test system: HOP-92 NSCLC

Measured: TGI

COc1ccc(C(=O)C(c2ccc(OCc3ccccc3)cc2)c2ccc(OCc3ccccc3)cc2)cc1
> 100 µM: all assays above
